Measurements reported in the METLIN SMRT retention time set (Domingo-Almenara et al. 2019).

Experiment: gradient 5% acetonitrile 3 min, to 50% in 2 min, to 85% in 15 min, held 3 min, 100 µL/min
Conditions: column: Zorbax Extend-C18 2.1 x 50 mm; eluents: water / acetonitrile, 0.1% formic acid
Outline: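 Retention times come from adduct peaks that were picked computationally and then checked by hand. The standards, pure and pooled in mixtures of ~100 molecules, were run on a Zorbax Extend-C18 column (2.1 × 50 mm, 1.8 μm) at 100 μL/min with water and acetonitrile, each with 0.1% formic acid. Detection was by quadrupole time-of-flight mass spectrometry in positive and negative ionization mode, with a dead volume of 40 μL and a dwell volume of 900 μL.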

Compound	RP-LC retention time
Cc1sc(-c2cc(C(F)(F)F)on2)cc1S(=O)(=O)N1CCOCC1	1040 s
CCN1CCCC1CNC(=O)C1CCN(S(=O)(=O)c2ccc3c(ccn3CC)c2)CC1 (configuration not stated)	664 s
CC(C)Cn1c(=O)c2cc(C(=O)NCc3ccncc3)nn2c2ccccc21	657 s
O=C([C@@H]1C[C@H](Oc2cccnc2)CN1C(=O)c1ccco1)N1CCCC1	553 s
O=c1n(Cc2ccc(F)cc2)nc2ccc(S(=O)(=O)N3CCc4ccccc4C3)cn12	983 s
O=C(CN1CC=C(c2cnn(-c3ccc(F)cc3)c2)CC1)N1CCN(c2ccccn2)CC1	566 s
Cc1ccc(N2CC(c3nc(Cn4cnc5ccccc5c4=O)no3)CC2=O)cc1C (configuration not stated)	789 s
O=C(c1ccc(Cl)cc1Cl)N1CCN(c2cc(-c3cccs3)[nH]n2)CC1	888 s
O=C(Cc1nnc2c(-c3nc(C4CC4)no3)cccn12)N1CCc2ccccc2C1	722 s
CCOc1ccccc1NC(=O)c1cncc(NS(=O)(=O)c2ccc(OC)cc2)c1	798 s
CCc1nc(-c2csc(S(=O)(=O)N3CCCC(C(=O)Nc4ccc(Cl)cc4C)C3)c2)no1 (configuration not stated)	1100 s
Cc1nc2c(ccc3nc(NC(=O)NC4CCCC4)sc32)s1	785 s
CCOc1ccccc1-c1noc(Cn2c(=O)n(CCCOC)c(=O)c3ccccc32)n1	1060 s
COc1ccc(OCCN2CC(=O)N(c3ccc(C)c(C)c3)[C@@H]3CS(=O)(=O)C[C@@H]32)cc1	859 s
CCCN(CC1CCOC1)C(=O)Nc1cccc(F)c1C (configuration not stated)	758 s
COc1cccc(S(=O)(=O)N2CCc3c(c(-c4nnc(-c5ccccc5F)o4)nn3C)C2)c1	916 s
CCCn1cc(C(=O)NCc2ccc(F)cc2F)c(S(=O)(=O)N2CCC(C)CC2)n1	1100 s
CCN(Cc1cccnc1)C(=O)CN(c1ccc(OC)nc1)S(=O)(=O)c1ccccc1C	734 s
O=C(Nc1ccc2c(c1)OCO2)C1CCN(c2cc(N3CCSCC3)ncn2)CC1	676 s
N#Cc1ccccc1CN1CCCC(N2CCCC2)C1=O (configuration not stated)	574 s

Compound	RP-LC retention time
CCOCCOC(=O)c1ccc(NC(=O)C(C)(C)C)cc1	815 s
COc1ccc(NC(=O)c2c(S(=O)(=O)Nc3ccc(Cl)cc3)n[nH]c2C)cc1OC	788 s
Cc1nc(-c2cn(C)c3ncccc23)sc1C(=O)Nc1ccc(Cl)cc1	1060 s
O=C(Nc1ncc([N+](=O)[O-])s1)c1c2c(nn1C1CCS(=O)(=O)C1)CCC2 (configuration not stated)	792 s
Cc1cc(N2CCN(C(=O)c3ccccc3)CC2)nc2nncn12	558 s
Cc1ccccc1N1C[C@@]23C=C[C@@H](O2)[C@H](C(=O)OC(C)C)[C@@H]3C1=O	785 s
NC(=O)c1ccc(-n2cccc2)nc1	650 s
CCN1C(=O)C(C)(C(=O)NCc2cccc(Cl)c2)Oc2cccnc21 (configuration not stated)	903 s
CC(C)n1cnc2cc(CNC(=O)Cc3c[nH]c4ccccc34)ccc21	604 s
O=C(NCc1ccccc1F)C1CCN(c2cc(N3CCCCC3)ncn2)CC1	680 s
COc1ccc(NC(=O)N2CCC(c3cc(N)on3)CC2)cc1	640 s
O=C(CN1C(=O)CCc2cc(Br)ccc21)N1CCN(c2ccccc2F)CC1	951 s
Cc1nc(CC(=O)Nc2ccc(Cl)c(F)c2)sc1C(=O)NC1CC1	750 s
CCN1C(=O)COc2ccc(-c3noc(-c4ccccc4Br)n3)cc21	1180 s
CCOC(=O)c1c(S(=O)(=O)N2CCC(C(=O)Nc3cccc(Cl)c3)CC2)c(C)n(CC)c1C	986 s
COc1ccc(-c2ncc3c(=O)n(Cc4ccccc4Cl)c(=O)n(C)c3n2)cc1	1210 s
CN(C)S(=O)(=O)c1ccc(-c2nnc(C(=O)NCc3cccs3)o2)cc1	812 s
CSc1ccccc1NC(=O)C(=O)NCCn1nc(-c2ccco2)ccc1=O	781 s
CN1CCN(CCNC(=O)c2nc3ccccn3c2-c2ccc(Cl)cc2)CC1	603 s
O=C(Nc1ccc2c(c1)OCO2)C1(c2ccc(F)cc2)CC1	877 s

Compound	RP-LC retention time
CCN1CCN(C(=O)C2CCN(S(=O)(=O)c3ccc4c(c3)sc(=O)n4CC)CC2)CC1	602 s
CC(C)NC(=O)N(C1CC1)C1CCOC2(CCN(C(=O)C3CC3)CC2)C1 (configuration not stated)	688 s
COc1ccc(OCc2noc(CNC(=O)C3(c4ccccc4)CCOCC3)n2)cc1	802 s
CCc1nc(-c2cc(S(=O)(=O)NCC(=O)N3CCCCC3)c(C)s2)no1	891 s
Cn1c(=O)c(C(=O)N2CCN(c3ccccn3)CC2)nc2ccccc21	1310 s
COc1ccc(C(=O)N2CCC3(C2)C(=O)Nc2ccc(OC)cc23)c(OC)c1 (configuration not stated)	692 s
Cc1[nH]c2ccc(-c3nnc(SCC(=O)NC(C)c4nc5ccccc5[nH]4)o3)cc2c1C (configuration not stated)	667 s
O=C(Nc1cccc(F)c1)N1CCC(N2CCN(Cc3cccc(F)c3)C(=O)C2=O)CC1	755 s
Cc1cccc(NC(=O)N(C)CCc2noc(COc3ccccc3)n2)c1	927 s
Cc1ccc(-c2ncc3c(=O)n(CC(=O)N4CCCC4)c(=O)n(C)c3n2)cc1	888 s
Cc1ccc(NC(=O)CN2C(=O)CCCc3cc(S(=O)(=O)N4CCCCC4)ccc32)cc1F	953 s
CCC(C)NC(=O)C1CCN(S(=O)(=O)c2c(C)[nH]c(C)c2C(=O)N2CCCCC2)CC1 (configuration not stated)	672 s
Cc1ccc(NC(=O)N2CCC(c3nc(C(=O)N4CCOCC4)c(C)o3)CC2)c(C)c1	709 s
CCn1c(C(=O)NCCc2ccc(OC)c(OC)c2)cc2sc(Cl)cc21	1030 s
CS(=O)(=O)N1CCC(C(=O)Nc2ccc(Oc3ccccc3)cc2)Oc2ccccc21 (configuration not stated)	1030 s
Cc1ccc(NS(=O)(=O)c2c(-c3nc(C4CCC4)no3)c(C)n(C)c2C)cc1	989 s
Cn1c(C(=O)N2CCN(c3ccccn3)CC2)cc2c(-c3cccs3)nn(-c3ccccc3)c21	749 s
CC(=O)N1CCc2ccccc2C1C(=O)NCc1ccc2c(c1)OCO2 (configuration not stated)	731 s
CN1C(=O)c2cc(C(=O)NC3CCN(Cc4ccccc4)CC3)nn2CC1(C)C(=O)NC1CCCC1 (configuration not stated)	610 s
Cc1cccc(NC(=O)C2CCCN(c3nc4ccsc4c(=O)n3-c3cccc(C)c3)C2)c1 (configuration not stated)	1020 s

Continued, values first:

RP-LC retention time	Compound
963 s	Cn1nc(-c2nnc(-c3ccc(F)cc3)o2)c2c1CCN(S(=O)(=O)c1cccc(F)c1)C2
666 s	CCCN1CCN(C(=O)C2CCN(S(=O)(=O)c3cc(-c4noc(CC)n4)sc3C)CC2)CC1
661 s	COc1ccc(S(=O)(=O)CCCC(=O)Nc2nccs2)cc1
1020 s	COc1ccc2cccc(NC(=O)c3ccsc3)c2n1
580 s	O=C(NC1CC1)c1ccc2ncnc(N3CCCCC3)c2c1
828 s	COc1ccc(-n2ccn3cc(-c4cc(OC)ccc4OC)nc3c2=O)cc1
946 s	COc1ccccc1C1CC(=O)Nc2c(S(=O)(=O)c3ccccc3)csc21 (configuration not stated)
950 s	CCN1C(=O)C2(CCN(C(=O)C3CCCCC3)CC2)c2ccccc21
896 s	CCc1nnc2ccc(-c3noc(Cc4cccc(Cl)c4)n3)cn12
728 s	COc1cccc(C(=O)N2CCC3(CC2)N=C(c2ccccc2)NO3)c1
824 s	CCOC(=O)C1=C(C)N(CC(=O)N2CCCC2)c2ncnn2C1c1ccc(C)cc1 (configuration not stated)
849 s	COC(=O)c1cccc(Nc2c(-c3ccc(C)cc3)nc3cnccn23)c1
611 s	CCCN1C(=O)CCc2c(C)ncnc21
738 s	COCCn1c(=O)c2c(nc3n2CCCN3c2ccccc2)n(C)c1=O
1040 s	Cc1ccc(-c2nc3cnccn3c2Nc2cc(C)cc(C)c2)cc1
1110 s	Cc1ccc(NC(=O)Cn2nc(N3CCCC(C)C3)c3ccccc3c2=O)c(F)c1 (configuration not stated)
660 s	CCCCS(=O)(=O)Nc1ccc2c(c1)nc(-c1ccc(C(=O)NCCC)cc1)n2C
642 s	O=C(Cc1nnc2cc(-c3nc(C4CC4)no3)ccn12)N1CCOCC1
904 s	Cc1ccc(NC(=O)N2CCC3(CC2)NC(=O)c2cc(Cl)ccc2N3C)cc1C
1260 s	Cc1cc(F)ccc1NS(=O)(=O)c1cc(-c2nc(C(C)(C)C)cs2)cs1
692 s	CCCNC(=O)C1CCN(c2ccc(SCC(=O)Nc3ccc(F)c(Cl)c3)nn2)CC1
650 s	COc1ccc(N2CCN(C(=O)CCN3C(=O)C4C5C=CC(C5)C4C3=O)CC2)cc1 (configuration not stated)
550 s	O=C(NCc1ccncc1)C1CCCN(c2nnc3ccc(C(F)(F)F)cn23)C1 (configuration not stated)
654 s	O=C(C1CC(=O)N(C2CCCCC2)C1)N1CCC2(CC1)NCCc1c2[nH]c2ccccc12 (configuration not stated)
757 s	Cn1nnnc1C1CCCN(S(=O)(=O)Cc2ccccc2F)C1 (configuration not stated)
754 s	CC1(C)CC(=O)C2=C(C1)Nc1ccccc1N(CC(=O)NCC1CCCO1)C2c1cccs1 (configuration not stated)
850 s	CN1C(=O)c2cc(C(=O)NCc3ccc(Cl)cc3)nn2CC1(C)C(=O)NC1CCCCC1 (configuration not stated)
